Patent EP0326331B1, “Substituted quinolines and cinnolines” (Dow AgroSciences LLC, priority 1988, dated 1989)

Experiments:
Type in all cases: in vivo
[1] = system: Puccinia recondita tritici (leaf rust); experiment: Test 1 greenhouse foliar spray screen, leaf rust on wheat; details: Puccinia recondita, foliar, Test 1, foliar spray on wheat; disease control rating at 400 ppm / 100 ppm
[2] = system: Erysiphe graminis tritici (powdery mildew); experiment: Test 1 greenhouse foliar spray screen, powdery mildew on wheat; details: Blumeria graminis, foliar, Test 1, foliar spray on wheat; disease control rating at 400 ppm / 100 ppm; read-out: POWD MDEW
[3] = system: melon aphids (Aphis gossypii Glover); experiment: Mite/insect screen, MA; details: Aphis gossypii, foliar, percent mortality, foliar spray on squash, read-out: MA RESULTS %; for mortality at 400 ppm: rate 400 ppm; for mortality at 200 ppm: rate 200 ppm
Summary of the method: (§1)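 Percent mortality was scored after standard exposure periods, following spraying of leaves to runoff (both surfaces, 10 psi, 1 h drying) with water dilutions of compound in emulsifier-containing acetone/alcohol (50:50). Armyworms received excised treated leaves in dishes.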

[4] = system: Botrytis cinerea (gray mold); experiment: Test 1 greenhouse foliar spray screen, gray mold on grape berries; details: Botrytis cinerea, foliar; Test 1, spray on grape berries; disease control rating at 400 ppm / 100 ppm
[5] = system: Twospotted spider mites (Tetranychus urticae Koch); experiment: Mite/insect screen, SM; details: for mortality at 400 ppm / mortality at 200 ppm: Tetranychus urticae, foliar, percent mortality, foliar spray on squash, read-out: SM RESULTS %; for mortality at 400 ppm: rate 400 ppm; for activity as miticides: summary statement in the description; for mortality at 200 ppm: rate 200 ppm
Summary of the method: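 Read-out: percent mortality after standard exposure periods. Test solutions were water dilutions of compound dissolved in acetone/alcohol (50:50) with emulsifier blends; leaves were sprayed to runoff on both surfaces and air-dried for one hour before exposure.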

[6] = system: southern armyworm (Spodopetra eridania Cramer); experiment: Mite/insect screen, SAW; details: Spodoptera eridania, foliar, percent mortality, foliar spray on squash, read-out: SAW RESULTS %; for mortality at 400 ppm: rate 400 ppm; for mortality at 200 ppm: rate 200 ppm
Summary of the method: as §1

corn rootworm = experiment: Mite/insect screen, CRW; details: percent mortality, read-out: CRW RESULTS %; for mortality at 24 ppm: CRW rate 24.00 ppm; for mortality at 12 ppm: CRW rate 12.00 ppm
Summary of the method: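 Corn rootworm mortality (%) was evaluated following standard exposure times. Test material was emulsified by dissolution in acetone/alcohol (1:1) containing sulfonate/nonionic emulsifier blends TOXIMUL R (23 g/L) and TOXIMUL S (13 g/L), and water-diluted to the indicated doses.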

[7] = system: Pseudoperonospora cubensis (downy mildew); experiment: Test 1 greenhouse foliar spray screen, downy mildew on squash; details: Pseudoperonospora cubensis, foliar, Test 1, foliar spray on squash; disease control rating at 400 ppm / 100 ppm; read-out: DOWN MDEW
[8] = system: Pyricularia oryzae (rice blast); experiment: whole plant or invertebrate; details: Pyricularia oryzae, foliar, read-out: RICE BLAST, Test 1, foliar spray on rice; disease control rating at 400 ppm / 100 ppm

| SMILES | pest or weed control at 400 ppm [1] [%] | pest or weed control at 400 ppm [2] [%] | mortality at 400 ppm [3] [%] | pest or weed control at 400 ppm [4] [%] | mortality at 400 ppm [5] [%] | mortality at 400 ppm [6] [%] | mortality at 24 ppm (corn rootworm) [%] | pest or weed control at 400 ppm [7] [%] | pest or weed control at 400 ppm [8] [%] | activity as miticides [5] | mortality at 200 ppm [3] [%] | mortality at 200 ppm [5] [%] | mortality at 200 ppm [6] [%] | mortality at 12 ppm (corn rootworm) [%] |
| --- | --- | --- | --- | --- | --- | --- | --- | --- | --- | --- | --- | --- | --- | --- |
| COc1cccc(CCOc2ccnc3c(F)cccc23)c1 [Example 195, 4-[2-(3-methoxyphenyl)ethoxy]-8-fluoroquinoline] | 90 to 100 | 90 to 100 | 0 | 0 to 19 | 0 | 0 | 0 | 90 to 100 | 90 to 100 | – | – | – | – | – |
| COc1ccc(CCOc2ccnc3c(F)cccc23)cc1 [Example 196, 8-fluoro-4-[2-(4-methoxyphenyl)ethoxy]quinoline] | 90 to 100 | 90 to 100 | 100 | 0 to 19 | 100 | 0 | 0 | 90 to 100 | 90 to 100 | particularly excellent activity | – | – | – | – |
| Fc1cccc2c(OCCc3cccc(Oc4ccccc4)c3)ccnc12 [Example 197, 8-fluoro-4-[2-(3-phenoxyphenyl)ethoxy]quinoline] | 90 to 100 | 90 to 100 | 80 | 0 to 19 | 90 | 80 | 0 | 20 to 89 | 90 to 100 | particularly excellent activity | – | – | – | – |
| CC(C)(C)c1ccc(CCOc2ccnc3c(Br)cccc23)cc1 [Example 198, 8-bromo-4-[2-(4-(t-butyl)phenyl)ethoxy]quinoline] | 0 to 19 | 0 to 19 | 80 | 0 to 19 | 90 | 0 | 0 | 0 to 19 | 0 to 19 | – | – | – | – | – |
| COc1ccc(CCOc2ccnc3c(F)cccc23)cc1OC [Example 199, 4-[2-(3,4-dimethoxyphenyl)ethoxy]-8-fluoroquinoline] | 90 to 100 | 90 to 100 | 0 | 0 to 19 | 0 | 0 | 100 | 90 to 100 | 90 to 100 | – | – | – | – | – |
| Cc1ccc(CCOc2ccnc3cc(Cl)ccc23)cc1 [Example 204, 7-chloro-4-[2-(4-methylphenyl)ethoxy]quinoline] | 20 to 89 | 20 to 89 | 50 | 0 to 19 | 0 | 100 | 0 | 20 to 89 | 0 to 19 | – | 0 | 0 | 0 | 0 |
| Cc1ccccc1CCOc1ccnc2c(F)cccc12 [Example 205, 8-fluoro-4-[2-(2-methylphenyl)ethoxy]quinoline] | 90 to 100 | 90 to 100 | 0 | 0 to 19 | 0 | 0 | 0 | 90 to 100 | 90 to 100 | – | – | – | – | – |
| CC(Cc1ccccc1)Oc1ccnc2c(F)cccc12 (centres unmarked) [Example 214, 8-fluoro-4-[1-(phenylmethyl)ethoxy]quinoline] | 20 to 89 | 20 to 89 | 0 | 0 to 19 | 0 | 0 | 0 | 90 to 100 | 90 to 100 | – | – | – | – | – |
| Clc1ccc(CCOc2ccnc3c(Br)cccc23)cc1 [Example 215, 8-bromo-4-[2-(4-chlorophenyl)ethoxy]quinoline] | 20 to 89 | 0 to 19 | 100 | 0 to 19 | 100 | 0 | 0 | 90 to 100 | 20 to 89 | – | – | – | – | – |
| Clc1ccccc1CCOc1ccnc2c(Cl)cccc12 [Example 216, 8-chloro-4-[2-(2-chlorophenyl)ethoxy]quinoline] | 90 to 100 | 90 to 100 | 0 | 0 to 19 | 0 | 0 | 100 | 90 to 100 | 90 to 100 | – | – | – | – | – |
| CC(C)c1ccccc1CCOc1ccnc2c(F)cccc12 [Example 217, 8-fluoro-4-[2-(2-(1-methylethyl)phenyl)ethoxy]quinoline] | 90 to 100 | 90 to 100 | 0 | 0 to 19 | 0 | 0 | 0 | 90 to 100 | 90 to 100 | – | – | – | – | – |
| Fc1cccc2c(OCCc3cccc(Sc4ccccc4)c3)ccnc12 [Example 218, 8-fluoro-4-[2-(3-(phenylthio)phenyl)ethoxy]quinoline] | 90 to 100 | 90 to 100 | 0 | 0 to 19 | 0 | 100 | 0 | 90 to 100 | 90 to 100 | – | – | – | – | – |
| Fc1cccc2c(OCCc3ccc(Br)cc3)ccnc12 [Example 223, 4-[2-(4-bromophenyl)ethoxy]-8-fluoroquinoline] | 90 to 100 | 90 to 100 | 100 | 0 to 19 | 0 | 0 | 0 | 0 to 19 | 90 to 100 | – | 80 | 0 | 0 | 80 |
| Clc1ccc(CCOc2ccnc3cc(Cl)ccc23)cc1 [Example 226, 7-chloro-4-[2-(4-chlorophenyl)ethoxy]quinoline] | 20 to 89 | 20 to 89 | 0 | 0 to 19 | 0 | 0 | 0 | 20 to 89 | 0 to 19 | – | 0 | 0 | 0 | 0 |
| Cc1cc(C)c(CCOc2ccnc3c(F)cccc23)c(C)c1 [Example 227, 8-fluoro-4-[2-(2,4,6-trimethylphenyl)ethoxy]quinoline] | 20 to 89 | 0 to 19 | 0 | 0 to 19 | 0 | 0 | 0 | 0 to 19 | 20 to 89 | – | 0 | 0 | 0 | 0 |
| CC(C)(C)c1ccc(CCOc2ccnc3cc(Cl)ccc23)cc1 [Example 231, 7-chloro-4-[2-(4-(t-butyl)phenyl)ethoxy]quinoline] | 0 to 19 | 20 to 89 | 50 | 0 to 19 | 40 | 0 | 0 | 0 to 19 | 0 to 19 | particularly excellent activity | 0 | 90 | 0 | 0 |
